How the values were obtained:
Assay in all cases: selective drug sensitivity score (sDSS, relative to normal bone marrow) (sDSS (score)); higher = more potent and effective on the cell line relative to normal bone marrow cells
Conditions in all cases: 72 h
LC4-1 = tested on: LC4-1
CCRF-HSB2 = tested on: CCRF-HSB2
MHH-CALL-4 = tested on: MHH-CALL-4
SEM cells = tested on: SEM cells
TANOUE = tested on: TANOUE
NALL-1 = tested on: NALL-1
MOLT-16 = tested on: MOLT-16
ALL-PO = tested on: ALL-PO
RCH-ACV = tested on: RCH-ACV
NALM-6 = tested on: NALM-6
COG-LL-319h = tested on: COG-LL-319h
TMD5 = tested on: TMD5
PEER = tested on: PEER
MOLT-4 = tested on: MOLT-4
KOPN-8 = tested on: KOPN-8
697 = tested on: 697
KASUMI-2 = tested on: KASUMI-2
KASUMI-9 = tested on: KASUMI-9
KASUMI-10 = tested on: KASUMI-10
SUP-B15 = tested on: SUP-B15
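Note: ALL cell lines in 384-well plates, five doses spanning 10,000-fold, each plate scaled between vehicle and 100 µmol/L benzalkonium chloride controls, sDSS an adapted area-under-curve metric.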

SMILES	selective drug sensitivity score (LC4-1)	selective drug sensitivity score (CCRF-HSB2)	selective drug sensitivity score (MHH-CALL-4)	selective drug sensitivity score (SEM cells)	selective drug sensitivity score (TANOUE)	selective drug sensitivity score (NALL-1)	selective drug sensitivity score (MOLT-16)	selective drug sensitivity score (ALL-PO)	selective drug sensitivity score (RCH-ACV)	selective drug sensitivity score (NALM-6)	selective drug sensitivity score (COG-LL-319h)	selective drug sensitivity score (TMD5)	selective drug sensitivity score (PEER)	selective drug sensitivity score (MOLT-4)	selective drug sensitivity score (KOPN-8)	selective drug sensitivity score 697	selective drug sensitivity score (KASUMI-2)	selective drug sensitivity score (KASUMI-9)	selective drug sensitivity score (KASUMI-10)	selective drug sensitivity score (SUP-B15)
Cc1cc(C)c(CNC(=O)c2cc(-c3ccc(CN4CCOCC4)cc3)cc3c2cnn3C2CCCC2)c(=O)[nH]1 [EPZ-5687] (top concentration 10000 nM)	-0.36	-0.06	-0.36	-0.36	-0.36	5.34	-0.36	0.24	-0.36	-0.36	-0.36	5.74	-0.36	-0.36	-0.36	-0.36	-0.36	3.14	-0.36	-0.36
CC(C)n1cnc2c(NCCc3ccc(O)cc3)nc(-c3csc4ccccc34)nc21 [StemRegenin_1] (top concentration 10000 nM)	-0.1	1.9	-1.8	-0.5	4.2	-1.4	4.4	1.9	-0.6	1.1	-1.8	-1.8	1.5	2.5	0.1	-0.5	-1.8	-0.5	-1.8	-0.2
COc1cccc(-c2ccc(NC(=O)C3=C(C(=O)O)CCC3)c(F)c2)c1 [Vidofludimus] (top concentration 10000 nM)	6.1	4	2.8	5.6	3	1.9	5.4	2.6	8.8	3.4	6.9	0	5.1	3.6	5.5	6	6.2	2.7	0.5	6
CN(C)C[C@@H]1CCn2cc(c3ccccc32)C2=C(C(=O)NC2=O)c2cn(c3ccccc23)CCO1 [Ruboxistaurin] (top concentration 10000 nM)	0.16	1.36	1.46	0.66	-8.24	-3.04	-0.34	6.86	1.06	-2.64	-1.04	0.46	0.46	-1.24	0.86	2.36	-3.34	1.36	1.96	0.06
O=C1CN2Cc3c(ccc(Cl)c3Cl)N=C2N1 [Anagrelide] (top concentration 10000 nM)	0	0	0.6	0	0	1.1	0	1	0	0	0	0	0	0	3.4	0	0	0	0	0
O=C(Nc1cccnc1)N1CCC(Cc2cccc(Oc3ccc(C(F)(F)F)cn3)c2)CC1 [PF-3845] (top concentration 10000 nM)	-0.54	3.26	0.96	0.96	3.66	-1.24	2.66	2.36	5.66	2.86	-0.04	-0.94	7.06	2.36	0.46	4.06	-0.24	-0.84	-1.34	3.16
COc1cc2/c(=N/c3ccc(Br)cc3F)nc[nH]c2cc1OCC1CCN(C)CC1 [Vandetanib] (top concentration 1000 nM)	-0.22	11.6	-0.22	-0.12	-0.22	2.28	-0.22	-0.22	-0.22	-0.22	-0.22	5.38	1.38	-0.22	-0.22	0.18	-0.22	-0.22	-0.22	1.08
Oc1ncnc2[nH]ncc12 [Allopurinol] (top concentration 10000 nM)	0.06	-0.64	-0.64	-0.54	-0.64	-0.64	-0.64	-0.64	-0.64	-0.04	3.56	-0.64	-0.64	-0.64	-0.64	-0.64	-0.64	-0.64	-0.64	0.36
CCNC(=O)CCC/C=C\C[C@@H]1[C@@H](/C=C/[C@@H](O)CCc2ccccc2)[C@H](O)C[C@@H]1O [Bimatoprost] (top concentration 5500 nM)	0	0	0.5	0	0	0	0	0	0	0	0	0	0	0	0	0	2.5	0	0	0
C[C@@H]1C[C@H]2[C@@H]3CCC4=CC(=O)C=C[C@]4(C)[C@@]3(F)[C@@H](O)C[C@]2(C)[C@@]1(O)C(=O)CO [Dexamethasone] (top concentration 10000 nM)	12.5	18.8	36.7	10.9	-1.42	34.1	9.68	43.2	38.8	30.8	26.5	14.9	-0.92	1.48	33.9	32.2	14.6	1.78	-1.52	43
COc1cc(NS(C)(=O)=O)ccc1Nc1c2ccccc2nc2ccccc12 [Amsacrine] (top concentration 10000 nM)	15.5	22.5	13.2	12.8	-11.2	5.66	27.1	5.66	24.7	10.7	18.2	3.86	3.16	21.3	18.3	20.6	21.7	16	11	23.6
CCN(CC)CCN(Cc1ccc(-c2ccc(C(F)(F)F)cc2)cc1)C(=O)Cn1c(SCc2ccc(F)cc2)nc(=O)c2c1CCC2 [Darapladib] (top concentration 1000 nM)	-1.42	-0.52	2.68	-1.42	-1.42	6.18	3.28	-1.42	7.28	-1.42	-1.42	6.98	-1.42	-1.42	7.18	-1.42	0.98	-1.32	-1.22	-1.42
CC(C)(C)C[C@@H]1N[C@@H](C(=O)N[C@H]2CC[C@H](O)CC2)[C@H](c2cccc(Cl)c2F)[C@]12C(=O)Nc1cc(Cl)ccc12 (top concentration 10000 nM)	12.4	9.06	8.96	-1.94	-7.84	-7.64	12.5	-1.84	12.4	6.26	13.9	9.16	-2.04	12.9	12.9	11.2	11.7	16.4	12.5	20.4
COc1cc(C)[nH]c(=O)c1CNC(=O)c1c(C)n([C@H](C)C2CCOCC2)c2ccccc12 [CPI-360] (top concentration 10000 nM)	0	0	0	0	0	0	0	0	0	0	0	0	0	0	0	0	0	0	0	0
CCN(CC)CCCC(C)Nc1ccnc2cc(Cl)ccc12 (stereo not given) [Chloroquine] (top concentration 100000 nM)	-3.74	-2.34	-1.44	-0.74	-6.04	-8.84	-3.14	-1.64	-0.14	-2.74	-5.84	-4.54	-0.94	-7.24	-1.14	-2.14	-8.14	-1.94	-4.24	-4.14
COC(=O)c1ccc([C@H]2c3[nH]c4ccccc4c3C[C@H](C(=O)OC)N2C(=O)CCl)cc1 [RSL3] (top concentration 10000 nM)	0	0	0	0	0	5.2	0	0	4.5	1.5	0	0	0	0	0	0	0	0	0.3	0

— the supplement of paper PMC8967900
